{"source": "patent EP0014981A2", "about": "“Medicaments and pharmaceutical compositions with cytostatic activity” (Henkel Kommanditgesellschaft auf Aktien, priority 1979, dated 1980)", "type_in_all_cases": "in vivo, Mäuse", "key": {"Coloncarcinom 26": {"system": "Coloncarcinom 26", "assay": "Colon carcinoma 26 i.p. in mice, survival", "conditions": "for Mäuse lebend, 60 Tage / alle Mäuse lebend (day up to which): groups of 10 mice", "description": "(§1) Die nachfolgenden Beispiele wurden durchgeführt nach Testvorschriften des National Cancer Institute Bethesda, Maryland 200014, veröffentlicht in \"Cancer Chemotherapy Reports\" Part. 3, Sept. '72, Vol. 3, Nr. 2. Als Wirksubstanz wurde verwendet α-Triglycidylisocyanurat (F 106° C) sowie β-Triglycidylisocyanurat (F 158 °C), beide mit 16,1 % Epoxidsauerstoffgehalt (Herstellung siehe US-PS 3,337,509).\n(§2) Alle wäßrigen 1 %igen Injektionslösungen wurden unmittelbar vor der Applikation frisch hergestellt.\n8) Durch i.p. Inplantation (1 mm^3 Coloncarcinom 26) wurde bei Gruppen von jeweils 10 Mäusen ein Ca gesetzt Die Behandlung erfolgte durch i.p.-Verabfolgung von α-TGI. In der nachfolgenden Tabelle III sind die Ergebnisse in Abhängigkeit der jeweils am 1., 5. und 9. Tag applizierten Menge wiedergegeben."}, "[1]": {"system": "gegenüber Cyclophosphamid (NSC 26271) resistente Leukämieform von P 388", "assay": "Cyclophosphamide-resistant P 388 leukaemia in mice, survival", "conditions": "10 mice", "description": "as §1, §2\nEine gegenüber Cyclophosphamid (NSC 26271) resistente Leukämieform von P 388 wurde mit α-T3I und Cyclophosphamid behandelt. Jede Gruppe bestand aus 10 Mäusen."}, "Sarcom 180": {"system": "Sarcom 180", "assay": "Sarcoma 180 i.p. in mice, survival", "conditions": "30 mg/kg i.p., days 1 to 9", "description": "as §1, §2\nDurch i.p-Verabfolgung von 10^6 Zellen pro Maus wurde das Sarcom 180 gesetzt. Die unbehandelte Kontrollgrüppe hatte eine mittlere überlebenszeit von 20, 2 Tagen."}, "Coloncarcinom 38": {"system": "Coloncarcinom 38", "assay": "Colon carcinoma 38 s.c. in mice, tumour weight", "conditions": "after 20 days (control 512 mg/Maus)", "description": "as §1, §2\nA)Gruppen von 10 Mäusen wurde etwa 1 mm^3 Coloncarcinom 38 s.c. implantiert. Das mittlere Turaorgetuicht betrug bei der unbehandelten Kontrollgruppe nach 20 Tagen: 512mg/Maus."}, "[2]": {"system": "Tumorart P 388 (Leucämie)", "assay": "Leukaemia P 388 in mice, NCI protocol 1 200, survival", "conditions": "for Heilung: % of animals", "description": "as §1, §2\nBei Mäusen wurde gemäß Protokoll 1 200 (Seite 9 l.c.) die Tumorart P 388 (Leucämie) i.p. mit 10^6 Zellen/Maus ge- setzt. Die unbehandelten Tiere hatten eine mittlere Überlebensdauer von 10,5 Tagen.\nBei Mäusen wurde gemäß Protokoll 1 200 (Seite 9 1.c.) die Tumorart P 388 Leucämie i.p. mit 10^6 Zellen/Maus gesetzt. Die unbehandelten Tiere hatten eine mittlere überlebensdauer von 10 Tagen."}, "Melanom B16": {"system": "Melanom B16", "assay": "Melanoma B 16 in mice, NCI instruction 1.300, survival", "conditions": "days 1 to 9", "description": "as §1, §2\nbei Mäusen wurde gemäß Anweisung 1.300 das 1/10 Homogenzt teranom B 16 jeweils 0,5 ml pro Maus i.p, verabfolgt gergl. S. 11 1,c.).\nDie Kontrollgruppe hatte eine mittlere Überlebenszeit von 15,3 Tagen (m.s.t.).\nBehandelte Gruppen erhielten vom 1. bis 9. Tag verschiedene Mengen α-TGI i.p. In der nachfolgenden Tabelle II ist die mittlere überlebensdauer und T/C in Ahhängigkeit der p.die gegebenen Menge Wirkstoff wiedergegeben."}, "[3]": {"assay": "Tolerated maximum daily dose in mice, i.p. aqueous solutions", "conditions": "clear toxic effects only at higher doses", "description": "Im Tierexperiment hat sich die Verwendung von frisch hergestellten, wäßrigen Lösungen, die i.p. gegeben werden, als zweckmäßig erwiesen. Von α- beziehungsweise β-Triglycidylisocyanurat kann bei Mäusen die Maximaldosis p.die 100 mg/kg Maus betragen. Deutliche toxische Wirkungen treten erst bei höherer Dosierung auf. Als optimale Dosierung hat sich in vielen Fällen eine Gabe von 30 mg bis 60 mg/kg Maus während einer Applikationsdauer von 1 bis 9 Tagen bewährt."}, "Leukämie L 1210": {"system": "Leukämie L 1210", "assay": "Leukaemia L 1210 in mice, NCI protocol 1.100, survival", "conditions": "for Überlebende / ganze Gruppe, leukäm. M. / Überlebende / ganze Gruppe, Kontrollgruppe: after 30 days; for Überlebende / ganze Gruppe, Kontrollgruppe: control group", "description": "as §1, §2\nBei Mäusen wurde gemäß Protokoll 1.100 (Seite 7 1.c.) Leukämie L 1210 durch i.p. Verabreichung von 0,1 ml verdünnter Erregerlösung entsprechend 10^5 Zellen erzeugt. Bei der Kontrollgruppe betrug die mittlere Überlebensdauer 8 Tage (m.s.t.).\nB) Der Einfluß der Behandlungsplanung auf die therapeutische Wirksamkeit von α-TGI bei Tumor L 1210 nach 30 Tagen ist der nachfolgenden Tabelle I zu entnehmen."}, "Lungencarcinom (Lewis)": {"system": "Lungencarcinom (Lewis)", "assay": "Lewis lung carcinoma in mice, NCI protocol 1.400, inhibition of metastases", "conditions": "days 1 to 11, after 23 days", "description": "as §1, §2\nGemäß Protokoll 1.400 (Seite 13 1.c.) wurden bei Mäusen Zellen, s.c. eines 1 mm^3 Stücks Lungencarcinom (Lewis) implantiert. Dann erfolgte vom 1. bis 11. Tag i.p. Verabfolgung von 40 mg/kg p.die an α-TGI bzw. 90 mg/kg p.die an β -TGI."}, "Ependymoblastom": {"system": "Ependymoblastom", "assay": "Intracerebrally implanted ependymoblastoma in mice, survival", "conditions": "40 mg/kg p.die, 9 days", "description": "as §1, §2\nBei einer Testgruppe von Mäusen wurde durch intracerebra1 mm^3 eines Gewebes von Ependymoblastom implantiert. Die mittlere Überlebensdauer bei der Kontrollgruppe be- trug 19,3 Tage."}, "[4]": {"conditions": "50 mg/kg p.die i.p., days 1 to 9"}, "[5]": {"conditions": "50 mg/kg p.die i.p., days 1 to 9, group of 6 mice"}, "[6]": {"conditions": "100 mg/kg p.die i.p., days 1 to 9"}}, "data": [{"molecule": "O=c1n(CC2CO2)c(=O)n(CC2CO2)c(=O)n1CC1CO1", "note": "(single isomer, unassigned) [α-TGI, α-Triglycidylisocyanurat]", "values": [{"measurement": "Mäuse lebend, 60 Tage", "setting": "Coloncarcinom 26; 25 mg i.p. on days 1, 5 and 9", "result": 6, "unit": "von 10"}, {"measurement": "alle Mäuse lebend (day up to which)", "setting": "Coloncarcinom 26; 25 mg i.p. on days 1, 5 and 9", "result": 25, "unit": "Tage"}, {"measurement": "Mäuse lebend, 60 Tage", "setting": "Coloncarcinom 26; 50 mg i.p. on days 1, 5 and 9", "result": 60, "unit": "Tage noch 10 Mäuse lebend"}, {"measurement": "Mäuse lebend, 60 Tage", "setting": "Coloncarcinom 26; 100 mg i.p. on days 1, 5 and 9", "result": 4, "unit": "Mäuse"}, {"measurement": "alle Mäuse lebend (day up to which)", "setting": "Coloncarcinom 26; 100 mg i.p. on days 1, 5 and 9", "result": 49, "unit": "Tage"}, {"measurement": "Mäuse überlebten 60 Tage", "setting": "[1]; 40 mg/kg, days 1 to 9", "result": "alle"}, {"measurement": "T/C", "setting": "[1]; 40 mg/kg, days 1 to 9", "result": 478, "unit": "%"}, {"measurement": "T/C", "setting": "Sarcom 180", "result": 183, "unit": "%"}, {"measurement": "mittleres Tumorgewicht", "setting": "Coloncarcinom 38; 50 mg/kg p.die on days 2, 9 and 16", "result": 183, "unit": "mg pro Maus"}, {"measurement": "mittleres Tumorgewicht", "setting": "Coloncarcinom 38; 50 mg/kg p.die on days 2 and 9", "result": 153, "unit": "mg pro Maus"}, {"measurement": "T/C", "setting": "[2]; 25 mg/kg p.die, 9 doses", "result": 196, "unit": "%"}, {"measurement": "T/C", "setting": "[2]; 50 mg/kg p.die i.p., 9 days", "result": 200, "unit": "%"}, {"measurement": "Heilung", "setting": "[2]; 50 mg/kg p.die, 9 days", "result": 17, "unit": "%"}, {"measurement": "T/C, Verlängerungsrate (mittlere Lebenserwartung gegenüber der Kontrollgruppe)", "setting": "[2]; 100 mg/kg p.die i.p., 9 days", "result": 285, "unit": "%"}, {"measurement": "behandelte Mäuse lebten länger als 40 Tage (als geheilt anzusehen)", "setting": "[2]; 100 mg/kg p.die i.p., 9 days, fraction of treated mice", "result": "Die Hälfte"}, {"measurement": "T/C", "setting": "Melanom B16; 25 mg p.die i.p.", "result": 227, "unit": "%"}, {"measurement": "m. s. t. (Tage)", "setting": "Melanom B16; 25 mg p.die i.p.", "result": "36,0 Tage"}, {"measurement": "T/C", "setting": "Melanom B16; 50 mg p.die i.p.", "result": 234, "unit": "%"}, {"measurement": "m. s. t. (Tage)", "setting": "Melanom B16; 50 mg p.die i.p.", "result": "37,0 Tage"}, {"measurement": "T/C", "setting": "Melanom B16; 12,5 mg p.die i.p.", "result": 188, "unit": "%"}, {"measurement": "m. s. t. (Tage)", "setting": "Melanom B16; 12,5 mg p.die i.p.", "result": "29,8 Tage"}, {"measurement": "MTD", "setting": "[3]; mouse, in vivo, ip, read-out: Maximaldosis p.die", "result": 100, "unit": "mg/kg/day"}, {"measurement": "Überlebende / ganze Gruppe, leukäm. M.", "setting": "Leukämie L 1210; 40 mg 9x i.p. (1.bis 9.Tag)", "result": "8/10"}, {"measurement": "Überlebende / ganze Gruppe, Kontrollgruppe", "setting": "Leukämie L 1210; 40 mg 9x i.p. (1.bis 9.Tag)", "result": "8/8"}, {"measurement": "Überlebende / ganze Gruppe, leukäm. M.", "setting": "Leukämie L 1210; 50 mg 5x i.p. (1.bis 5.Tag)", "result": "5/10"}, {"measurement": "Überlebende / ganze Gruppe, Kontrollgruppe", "setting": "Leukämie L 1210; 50 mg 5x i.p. (1.bis 5.Tag)", "result": "7/8"}, {"measurement": "T/C", "setting": "Leukämie L 1210; [4]", "result": 297, "unit": "%"}, {"measurement": "mittlere Überlebensdauer", "setting": "Leukämie L 1210; [4]", "result": "23,8 Tage"}, {"measurement": "30 Tage erreichten", "setting": "Leukämie L 1210; [5]", "result": 3, "unit": "Mäuse"}, {"measurement": "Heilungsrate", "setting": "Leukämie L 1210; [5]", "result": "~50", "unit": "%"}, {"measurement": "Hemmung an Metastasen gegenüber der Kontrollgruppe", "setting": "Lungencarcinom (Lewis); 40 mg/kg p.die i.p.", "result": 92, "unit": "%"}, {"measurement": "T/C", "setting": "Ependymoblastom", "result": 165, "unit": "%"}]}, {"molecule": "O=c1n(CC2CO2)c(=O)n(CC2CO2)c(=O)n1CC1CO1", "note": "(single isomer, unassigned) [β-TGI, β-Triglycidylisocyanurat]", "values": [{"measurement": "T/C", "setting": "[2]; 25 mg/kg p.die, 9 doses", "result": 174, "unit": "%"}, {"measurement": "T/C", "setting": "[2]; 50 mg/kg p.die i.p., 9 days", "result": 179, "unit": "%"}, {"measurement": "Heilung", "setting": "[2]; 50 mg/kg p.die, 9 days", "result": 17, "unit": "%"}, {"measurement": "T/C, Verlängerungsrate (mittlere Lebenserwartung gegenüber der Kontrollgruppe)", "setting": "[2]; 100 mg/kg p.die i.p., 9 days", "result": 228, "unit": "%"}, {"measurement": "Heilung", "setting": "[2]; 100 mg/kg p.die, 9 days", "result": 17, "unit": "%"}, {"measurement": "Maximaldosis p.die", "setting": "[3]", "result": 100, "unit": "mg/kg Maus"}, {"measurement": "T/C", "setting": "Leukämie L 1210; [4]", "result": 203, "unit": "%"}, {"measurement": "mittlere Überlebensdauer", "setting": "Leukämie L 1210; [4]", "result": "16,3 Tage"}, {"measurement": "T/C", "setting": "Leukämie L 1210; [6]", "result": 315, "unit": "%"}, {"measurement": "mittlere Überlebensdauer", "setting": "Leukämie L 1210; [6]", "result": "25,2 Tage"}, {"measurement": "Hemmung an Metastasen gegenüber der Kontrollgruppe", "setting": "Lungencarcinom (Lewis); 90 mg/kg p.die i.p.", "result": 87, "unit": "%"}]}, {"molecule": "O=P1(N(CCCl)CCCl)NCCCO1", "note": "(stereo not shown) [Cyclophosphamid, reference compound]", "values": [{"measurement": "T/C", "setting": "[1]; 180 mg/kg", "result": 150, "unit": "%"}, {"measurement": "Überlebenszeit der behandelten Mäuse", "setting": "[1]; 180 mg/kg", "result": "< 30", "unit": "Tage"}]}, {"molecule": "O=c1[nH]cc(F)c(=O)[nH]1", "note": "[Fluoruracil, reference compound]", "values": [{"measurement": "mittlere überlebensdauer", "setting": "Coloncarcinom 26; positive comparison, dose not given, 10 mice", "result": 55, "unit": "Tage"}, {"measurement": "Mäuse lebend am 60. Tag", "setting": "Coloncarcinom 26; positive comparison, dose not given, of 10 mice", "result": 2, "unit": "Mäuse"}]}, {"molecule": "CC1(Cn2c(=O)n(CC3(C)CO3)c(=O)n(CC3(C)CO3)c2=O)CO1", "note": "(stereo not shown) [Tri-(2-methylglycidyl)-isocyanurat]", "values": [{"measurement": "T/C", "setting": "[2]; 50 mg/kg p.die i.p., 9 days", "result": 150, "unit": "%"}, {"measurement": "T/C, Verlängerungsrate (mittlere Lebenserwartung gegenüber der Kontrollgruppe)", "setting": "[2]; 100 mg/kg p.die i.p., 9 days", "result": 170, "unit": "%"}]}]}
